Experimental data taken from PMC5007466, “VCP recruitment to mitochondria causes mitophagy impairment and neurodegeneration in models of Huntington's disease” (Nature Communications, 2016).

What was measured:
[1] = tested on: HD patient-iPS cell derived neurons; assay: Lysosomal activity (Lyso-ID Red); assay type: cell-based, human; conditions: 1 μM per day for 5 days
Method: (§1) iPS cells from a normal subject and a HD patient (carrying 41 CAG repeats) were differentiated into neurons using the protocol from our previous studies. Briefly, iPS cells were plated onto 6-well plates precoated with 2.5% Matrigel and allowed to reach 90% confluence in feeder-free medium. For the first 10 days, cells were treated with SB431542 (10 μM; Tocris Bioscience) and Noggin (100 ng/ml) in Neural Media (NM) containing Neurobasal and DMEM (1:1), B27 supplement minus vitamin A (50 × , Invitrogen), N2 supplement (100 × , Invitrogen), GlutaMax (Invitrogen, 100 × ), FGF2 ([…]) and EGF ([…]), 100 units per ml penicillin and 100 μg ml^−1 streptomycin). […]
To determine mitochondrial mass in cultures, cells were stained with antibodies against Tom20 or stained with Mitotracker green. The fluorescent density of Tom20 (1:500) or mitotracker green was quantitated using NIH Image J software. […] The images were visualized by microscope and quantitation of the density of red fluorescence was carried out using NIH ImageJ software. For immunocytochemistry study, at least 100 cells per group were counted and quantitated by an observer blind to experimental conditions.

[2] = tested on: interaction of mtHtt with Tim23; assay: Co-immunoprecipitation mtHtt/Tim23; assay type: cell-based; conditions: HV-3 treatment; total cell lysates, IP/WB
Method: (b) Stick drawings of VCP and Htt main domains. […] Immunoprecipitates were analysed by WB with the indicated antibodies. […] VCP mitochondrial levels were determined by WB. Loading control: VDAC. Data are mean±s.e.m. (g–i) ANOVA with Holm-Sidak post hoc test.

[3] = tested on: wt mice (R6/2 littermates); assay: Motor ability, body weight, life span of wt littermates; assay type: in vivo, mouse; conditions: 3 mg kg^−1 per day, 5–13 weeks of age
Method: Male hemizygous R6/2 mice (Tg) and their age-matched wt littermates (5-week-old) were implanted with a 28-day osmotic pump (Alzet, Cupertino CA) containing TAT control peptide or HV-3 peptide, which delivered peptides to the mice at a rate of 3 mg kg^−1 per day. The first pump was implanted subcutaneously in the back of 5-week-old mice between the shoulders and replaced once, after 4 weeks.
Gross locomotor activity was assessed in R6/2 mice and age-matched wt littermates at the ages of 13 weeks and in YAC128 mice and age-matched wt littermates at the ages of 2, 3, 6, 9, and 12 months. In an activity chamber (Omnitech Electronics, Inc), mice were placed in the center of the chamber and allowed to explore while being tracked by an automated beam system (Vertax, Omnitech Electronics Inc). Distance moved, horizontal, vertical, and rearing activities were recorded. Because R6/2 mice were sensitive to changes in environment and handling, we only conducted one-hour locomotor activity analysis for R6/2 mice and wt littermates. We performed 24 h of locomotor activity analysis for YAC128 mice and their wt littermates.
The body weight and survival rate of HD mice and wt littermates were recorded throughout the study period.

[4] = tested on: YAC128 mice; assay: EM of striatal mitophagosomes; assay type: in vivo, mouse; conditions: YAC128, 3 mg kg^−1 per day, age 3–9 months, per 100 μm^2
Description: The HdhQ7 and HdhQ111 cells were fixed by 2.5% glutaraldehyde in 0.1 M cacodylate buffer. Small pieces of the striata tissue of mice were fixed by immersion in triple aldehyde-DMSO. After rinsing in 0.1 M phosphate buffer (pH 7.3), the samples were post-fixed in ferrocyanide-reduced osmium tetroxide.
The above fixed samples were rinsed by water followed by overnight soaking in acidified uranyl acetate. After rinsing in distilled water, the blocks were dehydrated in ascending concentrations of ethanol, passed through propylene oxide, and embedded in Poly/Bed resin. Thin sections were sequentially stained with acidified uranyl acetate followed by a modification of Sato's triple lead stain. These sections were examined in a FEI Tecnai Spirit (T12) transmission electron microscope with a Gatan US4000 4kx4k CCD at the Case Western Reserve University EM core facility. Mitochondria from 15 random areas in each group were imaged by an experimenter blind to the experimental groups. The length of mitochondria was measured by NIH Image J software. The number of mitophagosomes per 100 μm^2 was counted. The number of gold particles labelling VCP on mitochondria were quantitated.
YAC128 mice (Tg) and their age-matched wt littermates were implanted with an osmotic pump containing TAT control peptide or HV-3 peptide (3 mg/kg/day, each) starting from the age of 3 months. […]

[5] = tested on: HD patient-iPS cell derived neurons; assay: Neurite length of DARPP-32/Tuj1-positive medium spiny neurons; assay type: cell-based, human; conditions: DARPP-32/Tuj1-positive neurons, 1 μM per day for 5 days versus TAT
Method: as §1, with “streptomycin). For the next 10 days, cells were treated with human recombinant Sonic hedgehog (SHH, 200 ng/ml), DKK1 (100 ng/ml) and BDNF (20 ng/ml) and 10 μM Y27632 (Sigma) in neuronal differentiation medium containing Neurobasal and DMEM (1:3), B27, N2, GlutaMax and PS.” for “streptomycin).”
In patient-iPS cell-derived neurons, to ensure the observation of mitochondria in the medium spiny neurons, the cells were stained with a mitochondrial marker (anti-TOM20, 1:500) and markers for medium spiny neurons (DARPP-32, 1:200, Epitomics). The quantitation of neurite length was conducted only in the neurons immunopositive for both DARPP-32 and Tuj1 (neuron-specific class III beta-tubulin, 1:5,000, Covance). At least 50 neurons/group were counted.

[6] = tested on: HD mouse striatal cells; assay: Caspase-3 activity (apoptosis); assay type: cell-based; conditions: 24 h serum starvation, HV-3
Method: mouse striatal cells were treated with thapsigargin (1μM) or tunicamycin (10μ g/ml) for 16 hours i n the presence or absence of HV -3 (3 µM). GRP78 total protein levels were determined by western blot analysis. Representative blots of three independent experiments are shown. Actin was used here as a loading control. (b) Tw e n t y -four hours of serum starvation was performed in HD mouse striatal cells.
Caspase-3 activity analysis was performed in the indicated groups. Data are mean ± SEM of three independent experiments. (c) Flag-VCP and GFP-LC3B were co-transfected into HdhQ7 striatal cells.
Total lysates were isolated after 36 hours of transfection. The GFP -LC3B levels were examined by western blot analysis. Actin was used as a loading control. Histogram: quantitation of GFP-LC3B total protein level. Data are mean ± SEM of three independent experiments.
(1 picture or pasted object on this page, not shown here)

CSCC[C@H](NC(=O)[C@@H](NC(=O)[C@H](CC(C)C)NC(=O)[C@@H](NC(=O)[C@H](Cc1c[nH]cn1)NC(=O)CCCCCNC(=O)[C@H](CCCNC(=N)N)NC(=O)[C@H](CCCNC(=N)N)NC(=O)[C@H](CCCNC(=N)N)NC(=O)[C@H](CCC(N)=O)NC(=O)[C@H](CCCNC(=N)N)NC(=O)[C@H](CCCNC(=N)N)NC(=O)[C@H](CCCCN)NC(=O)[C@H](CCCCN)NC(=O)[C@H](CCCNC(=N)N)NC(=O)CNC(=O)[C@@H](N)Cc1ccc(O)cc1)C(C)C)C(C)C)C(=O)N[C@@H](CS)C(=O)N[C@@H](C)C(=O)N[C@H](C(N)=O)[C@@H](C)O [HV-3]
lysosome hyperactivity [1]: corrected these aberrant events | interaction of mtHtt with Tim23 [2]: did not influence the interaction of mtHtt with Tim23 | motor ability, body weight, life span of wt mice [3]: no effects on motor ability, body weight, or life span in wt mice | number of mitophagosomes in striatum [4]: reduced by HV-3 treatment | neurite shortening [5]: reduced neurite shortening | apoptosis (caspase-3 activity) [6]: did not affect apoptosis
